Read-outs that look alike come from different tables or passages of the source.
How the values were obtained:
[1] = system: Plutella xylostella (diamond back moth); assay: Example B8: comparison with state of the art, Plutella xylostella (larvicide, feeding/residual contact activity, preventive); assay type: in vivo
Protocol: Plutella xylostella (Diamond Back Moth)
(§1) (Larvicide, Feeding/Residual Contact Activity, Preventive)
(§2) 24-well microtiter plate (MTP) with artificial diet is treated with test solutions by pipetting. After drying, the MTP's are infested with larvae (L2) (10-15 per well). After an incubation period of 5 days, samples are checked for larval mortality, antifeedant and growth regulation.

[2] = system: Plutella xylostella (diamond back moth); assay: Example B3: Plutella xylostella (larvicide, feeding/residual contact activity, preventive), artificial diet MTP; assay type: in vivo; settings: 120 h, L2 larvae on artificial diet, 5 days incubation
Protocol: as §2, with “Plutella xylostella (Diamond Back Moth) (Larvicide, Feeding/Residual Contact Activity, Preventive) 24-well” for “24-well”

[3] = system: Heliothis virescens (tobacco budworm); assay: Example B2: Activity against Heliothis virescens (ovo-larvicide, feeding/contact activity, curative), eggs on artificial diet; assay type: in vivo; settings: 96 h, 4 days incubation
Protocol: Activity Against Heliothis virescens (Tobacco Budworm) (Ovo-Larvicide, Feeding/Contact Activity, Curative) Eggs (0-24 h old) are placed in 24-well microtiter plate on artificial diet and treated with test solutions by pipetting. After an incubation period of 4 days, samples are checked for egg mortality, larval mortality, and growth regulation.

[4] = system: Spodoptera littoralis (Egyptian cotton leafworm); assay: Example B9: comparison with state of the art, Spodoptera littoralis (larvicide, feeding/residual contact activity, preventive); assay type: in vivo
[5] = system: Spodoptera littoralis (Egyptian cotton leafworm); assay: Example B1: Activity against Spodoptera littoralis (larvicide, feeding/residual contact activity, preventive), cotton leaf discs; assay type: in vivo; settings: foliar, 72 h, L1 larvae on cotton leaf discs, 3 days after treatment
Source text: Activity Against Spodoptera littoralis (Egyptian Cotton Leafworm)
as §1
The samples are checked for mortality, repellent effect, feeding behaviour, and growth regulation 3 days after treatment. In this test, compounds listed in Table P above show good activity. In particular compounds P.1, P.2, P.3, P.4, P.5, P.6, P.7, P.8, P.9, P.10, P.11, P.12, P.13, P.14, P.15, P.16, P.17, P.18, P.19, P.20, P.21, P.22, P.23, P.24, P.25, P.26, P.27, P.28, P.29, P.30, P.31, P.32, P.33, P.34, P.35, P.36, P.37, P.38, P.39, P.40, P.41, P.42, P.43, P.44, P.46, P.50, P.51, P.52, P.55, P.56, P.57, P.58, P.59, P.60, P61, P.66, P.67, P.68, P.69, P.70, P.71, P.72, P.73, P.74, P.75, P.76, P.77, P.78, P.83, P.84, P.87 and P.88 show an activity of over 80% at a concentration of 400 ppm.

[6] = system: Diabrotica balteata (corn root worm); assay: Example B4: Diabrotica balteata (larvicide, feeding/residual contact activity, preventive), artificial diet MTP; assay type: in vivo; settings: 120 h, L2 larvae on artificial diet, 5 days incubation
Protocol: as §2, with “Diabrotica balteata (Corn Root Worm) (Larvicide, Feeding/Residual Contact Activity, Preventive) 24-well” for “24-well”, “(6-10” for “(10-15”

[7] = system: Myzus persicae (green peach aphid); settings: foliar, 144 h, read-out: activity
[8] = system: Myzus persicae (green peach aphid); assay: Example B6: Activity against Myzus persicae (mixed population, systemic/feeding activity, curative), pea seedling roots in test solution; settings: 144 h, read-out: activity

| melting point | Compound | pest or weed control at 400 ppm [2] | pest or weed control at 400 ppm [3] | pest or weed control at 400 ppm [5] | pest or weed control at 400 ppm [6] | pest or weed control at 400 ppm [7] | pest or weed control at 400 ppm [8] | also measured |
| --- | --- | --- | --- | --- | --- | --- | --- | --- |
| 140 to 142 °C | Cc1cc2c(c(C(=O)NC(C)C)c1NC(=O)c1cc(C(F)F)nn1-c1ncccc1Cl)OC(C)C2 (stereo not drawn) |  |  |  |  |  |  |  |
| 188 to 190 °C | CC(C)(CS(C)(=N)=O)NC(=O)c1c(NC(=O)c2cc(Cl)nn2-c2ncccc2Cl)c(Cl)cc2c1OC(F)(F)O2 (stereo not drawn) |  |  |  |  |  |  |  |
|  | CC(C)NC(=O)c1c(NC(=O)c2cc(C(F)(F)F)nn2-c2ncccc2Cl)c(Cl)cc2c1OC(F)(F)O2 [P.13] | > 80% | > 80% | > 80% | > 80% |  |  | Death rate (%) after 5 days ([1]; Concentration 12.5 ppm): 100%; Death rate (%) after 5 days ([1]; Concentration 50 ppm): 100%; Death rate (%) after 5 days ([1]; Concentration 200 ppm): 100%; insecticidal action compared with the compound from the state of the art (T91.3) ([1]; on Plutella xylostella, especially at low application rates): substantially better insecticidal action; Death rate (%) after 5 days ([4]; Concentration 12.5 ppm): 100%; Death rate (%) after 5 days ([4]; Concentration 50 ppm): 100%; Death rate (%) after 5 days ([4]; Concentration 200 ppm): 100%; insecticidal action compared with the compound from the state of the art (T91.3) ([4]; on Spodoptera littoralis, especially at low application rates): substantially better insecticidal action |
| 236 to 237 °C | CNC(=O)c1c(NC(=O)c2cc(OC(F)F)nn2-c2ncccc2Cl)c(C)cc2c1OC(F)(F)O2 |  |  |  |  |  |  |  |
| 169 to 170 °C | CC(C)NC(=O)c1c(NC(=O)c2cc(C(F)F)nn2-c2ncccc2Cl)ccc2c1OC(C)C2 (stereo not drawn) [P.86] |  |  |  |  |  |  |  |
| 205 to 206 °C | CNC(=O)c1c(NC(=O)c2cc(C(F)F)nn2-c2ncccc2Cl)c(C)cc2c1OC(C)C2 (stereo not drawn) |  |  |  |  |  |  |  |
|  | CC(C)NC(=O)c1cc2c(c(Cl)c1NC(=O)c1cc(C(F)(F)F)nn1-c1ncccc1Cl)OC(F)(F)O2 [T91.3, reference compound] |  |  |  |  |  |  | Death rate (%) after 5 days ([1]; Concentration 12.5 ppm): 0%; Death rate (%) after 5 days ([1]; Concentration 50 ppm): 80%; Death rate (%) after 5 days ([1]; Concentration 200 ppm): 100%; Death rate (%) after 5 days ([4]; Concentration 12.5 ppm): 0%; Death rate (%) after 5 days ([4]; Concentration 50 ppm): 0%; Death rate (%) after 5 days ([4]; Concentration 200 ppm): 100 (growth) % |
| 178 to 179 °C | CCNC(=O)c1c(NC(=O)c2cc(Br)nn2-c2ncccc2Cl)ccc2c1OCO2 [P.65] |  |  |  |  |  |  |  |
|  | CNC(=O)c1c(NC(=O)c2cc(Br)nn2-c2ncccc2Cl)c(Cl)cc2c1OC(F)(F)O2 [P.18] | > 80% | > 80% | > 80% | > 80% | > 80% | > 80% |  |
| 88 to 90 °C | CC(C)(CS(C)(=O)=O)NC(=O)c1c(NC(=O)c2cc(C(F)(F)F)nn2-c2ncccc2Cl)c(Cl)cc2c1OCO2 |  |  |  |  |  |  |  |
|  | CSCC(C)(C)NC(=O)c1c(NC(=O)c2cc(Cl)nn2-c2ncccc2Cl)c(C)cc2c1OC(F)(F)O2 [P.31] | > 80% | > 80% | > 80% | > 80% | > 80% | > 80% |  |
| 240 to 242 °C | C[S+]([O-])CC(C)(C)NC(=O)c1c(NC(=O)c2cc(Cl)nn2-c2ncccc2Cl)c(Cl)cc2c1OC(F)(F)O2 (stereo not drawn) |  |  |  |  |  |  |  |
| 203 to 204 °C | Cc1cc2c(c(C(=O)NC(C)C)c1NC(=O)c1cc(OC(F)F)nn1-c1ncccc1Cl)OC(F)(F)O2 |  |  |  |  |  |  |  |
| 173 to 174 °C | CSCC(C)(C)NC(=O)c1c(NC(=O)c2cc(C(F)(F)F)nn2-c2ncccc2Cl)c(C)cc2c1OC(F)(F)O2 |  |  |  |  |  |  |  |
|  | CSCC(C)(C)NC(=O)c1c(NC(=O)c2cc(Br)nn2-c2ncccc2Cl)c(Cl)cc2c1OC(F)(F)O2 [P.20] | > 80% | > 80% | > 80% | > 80% | > 80% | > 80% |  |
| 211 to 213 °C | CNC(=O)c1c(NC(=O)c2cc(C(F)F)nn2-c2ncccc2Cl)ccc2c1OC(C)C2 (stereo not drawn) [P.85] |  |  |  |  |  |  |  |
|  | CSCC(C)(C)NC(=O)c1c(NC(=O)c2cc(Cl)nn2-c2ncccc2Cl)c(Cl)cc2c1OC(F)(F)O2 [P.24] | > 80% | > 80% | > 80% | > 80% | > 80% | > 80% |  |
| 216 to 217 °C | COc1cc(C(=O)Nc2ccc3c(c2C(=O)NC(C)C)OCO3)n(-c2ncccc2Cl)n1 [P.64] |  |  |  |  |  |  |  |
|  | CSCC(C)(C)NC(=O)c1c(NC(=O)c2cc(C(F)(F)F)nn2-c2ncccc2Cl)c(Cl)cc2c1OC(F)(F)O2 [P.16] | > 80% | > 80% | > 80% | > 80% | > 80% | > 80% |  |
|  | CNC(=O)c1c(NC(=O)c2cc(Br)nn2-c2ncccc2Cl)c(C)cc2c1OC(F)(F)O2 [P.26] | > 80% | > 80% | > 80% | > 80% | > 80% | > 80% |  |
|  | CNC(=O)c1c(NC(=O)c2cc(C(F)(F)F)nn2-c2ncccc2Cl)c(Cl)cc2c1OC(F)(F)O2 [P.15] | > 80% | > 80% | > 80% | > 80% | > 80% | > 80% |  |

— patent US8399490B2, “Insecticides” (Syngenta Crop Protection LLC, priority 2007, dated 2013)
